Source: ChEMBL document CHEMBL4699405, “TPP-based mitocans: a potent strategy for anticancer drug design” (RSC Med Chem, 2020)

Key:
[1] = Antitumor activity against human UCI 101 ovarian cells xenografted in BALB/c mouse assessed as survival of mouse at 8 mg/kg, ip qod followed by six doses at 5 mg/kg qod measured upto 180 days (reference value: 0 (50 days)); format: functional; details: UCI101, ip, 4320 h, time 180 day
HCT-116 = experiment: Cytotoxicity against human HCT-116 cells assessed as reduction in cell viability at 10 umol/L incubated for 24 hrs by LDH assay; format: functional; details: HCT-116, 24 h, dose 10 µmol/L
MCF7 = experiment: Cytotoxicity against human MCF7 cells assessed as reduction in cell viability incubated for 24 hrs by SRB assay; format: functional, cell-based; details: MCF7, 24 h
MDA-MB-231 = experiment: Cytotoxicity against human MDA-MB-231 cells assessed as reduction in cell viability incubated for 24 hrs by SRB assay; format: functional, cell-based; details: MDA-MB-231, 24 h
SK-N-SH = experiment: Cytotoxicity against human SK-N-SH cells assessed as reduction in cell viability incubated for 24 hrs by SRB assay; format: functional, cell-based
DU-145 = experiment: Cytotoxicity against human DU-145 cells assessed as reduction in cell viability incubated for 24 hrs by SRB assay; format: functional, cell-based; details: DU-145, 24 h
HeLa = experiment: Cytotoxicity against human HeLa cells assessed as reduction in cell viability incubated for 24 hrs by SRB assay; format: functional, cell-based

SMILES: CN(C)c1ccc([P+](CCCCl)(c2ccc(N(C)C)cc2)c2ccc(N(C)C)cc2)cc1
- survival at 8 mg/kg [1]: 37.5%

SMILES: C[n+]1ccc(-c2cc[n+](CCCCCCCCCC[P+](c3ccccc3)(c3ccccc3)c3ccccc3)cc2)cc1
- inhibition at 10 µM (HCT-116): > 50%

SMILES: COc1cc(/C=C/C(=O)CC(=O)/C=C/c2ccc(OCCC[P+](c3ccccc3)(c3ccccc3)c3ccccc3)c(OC)c2)ccc1O
- IC50 (MCF7): 5.31 µM
- IC50 (MDA-MB-231): 8.33 µM
- IC50 (SK-N-SH): 8.19 µM
- IC50 (DU-145): 8.62 µM
- IC50 (HeLa): 7.69 µM

SMILES: CN(C)c1ccc([P+](CCCI)(c2ccc(N(C)C)cc2)c2ccc(N(C)C)cc2)cc1
- survival at 8 mg/kg [1]: 12.5%

SMILES: COc1cc(/C=C/C(=O)CC(=O)/C=C/c2ccc(OCCC[P+](c3ccccc3)(c3ccccc3)c3ccccc3)c(OC)c2)ccc1OCCC[P+](c1ccccc1)(c1ccccc1)c1ccccc1
- IC50 (MCF7): 2.31 µM
- IC50 (MDA-MB-231): 5.1 µM
- IC50 (SK-N-SH): 5.12 µM
- IC50 (DU-145): 5.1 µM
- IC50 (HeLa): 4.46 µM
